Earlier results as cited in patent US20040209811A1, “Oral prohylactic agent against viral infection” (Chuang-Chun Chiueh, priority 2003, published 2004).

Key:
enterovirus = conditions: full prevention of infection; protected cells from viral invasion and pathological changes
cells = conditions: at >0.3 μM concentration

In the case of phycocyanin, the “concentration that could fully prevent enteroviral infection” value (enterovirus) is listed as > 0.3 µM, the “concentration found to prevent the infection of influenza viruses” value (influenza viruses) is listed as > 0.04 µM and the toxicity to cells (cells) is listed as “non-toxic to cells”.
